Source: patent publication US20100009907A1, “Glucagon-Like Peptides and Uses Thereof” (AMYLIN PHARMACEUTICALS, INC., priority 2006, published 2010)
Where no end group is shown, it is not given here.

biological target: T1, RINm5f cells expressing endogenous GLP-1, calcitonin, and GIP receptors (Rattus norvegicus, UniProt P32301); test: GLP/GIP/CT cAMP (RIN) assay; type: cell-based; conditions: not given
T1 construct: RINm5f cells expressing endogenous GLP-1, calcitonin, and GIP receptors; endogenous in cells; host or cells: RINm5f cells
T1 sequence (P32301 22-463): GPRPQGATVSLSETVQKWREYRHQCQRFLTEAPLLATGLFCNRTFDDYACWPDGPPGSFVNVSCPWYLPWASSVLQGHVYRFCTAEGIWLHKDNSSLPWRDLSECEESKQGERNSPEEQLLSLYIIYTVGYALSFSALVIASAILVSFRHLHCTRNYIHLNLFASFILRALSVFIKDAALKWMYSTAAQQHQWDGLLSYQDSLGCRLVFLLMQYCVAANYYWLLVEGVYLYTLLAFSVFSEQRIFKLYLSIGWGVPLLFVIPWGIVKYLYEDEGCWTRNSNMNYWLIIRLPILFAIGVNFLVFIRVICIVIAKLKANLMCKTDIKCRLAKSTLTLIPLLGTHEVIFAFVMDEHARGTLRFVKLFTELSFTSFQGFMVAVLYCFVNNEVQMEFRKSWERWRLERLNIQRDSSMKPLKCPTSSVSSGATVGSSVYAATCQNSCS
Procedure: In addition, receptor binding can be measured using cells prepared from confluent cultures of RINm5f cells expressing endogenous GLP-1, calcitonin, and GIP receptors. Cells, and peptide or buffer solution are combined in 384-well plates. After a 30-minute incubation at room temperature in air, cAMP content is measured as recommended in the Perkin-Elmer AlphaScreen kit instructions.
Cells, and peptide or buffer solutions are combined in 384-well plates and incubated at room temperature in air for 30-minutes. cAMP content can then be measured according to recommendations in the Perkin-Elmer AlphaScreen™ kit instructions using the Perkin Elmer Fusion fluorimeter and data are analyzed using XLfit software (IDBS).

| GLP/GIP/CT cAMP(RIN) EC50 [nM] | Molecule |
| --- | --- |
| 0.53 | HAEGTYTNDVTEYLEEKAAKEFIEWLIK-NH2 (C-terminus assumed) [compound 25] |
| 415 | HADGTYTSDVSSYLQDQAAKDFITWLKSGQPKPDAVETRSVDTL-NH2 [compound 49] |
| 0.967 | HGEGTYTNDVTEYLEEKAAKEFIEWLIKGKPKKIRYS-NH2 (C-terminus assumed) [compound 26] |
| 0.576 | HGEGTYTNDVTQFLEEKAAKEFIDWLIKGKPKKQRLS-NH2 (C-terminus assumed) [compound 55] |
| 0.29 | HAEGTFTSDVTQQLDEKAAKEFIDWLINGGASKEIIS-NH2 (C-terminus assumed) [compound 12] |

Second part, the molecule before the results:

| Molecule | GLP/GIP/CT cAMP(RIN) EC50 [nM] |
| --- | --- |
| HAEGTFTSDVTQQLDEKAAKEFIDWLINGGPSSGAPPPS-NH2 (C-terminus assumed) [compound 9] | 0.28 |
| HAEGTFTSDVTQQLEEKAAKEFIEWLIKGKPKKIRYS-NH2 (C-terminus assumed) [compound 22] | 0.1 |
| HAEGTFTSDVTQQLDEKAAKEFIDALINGGPSKEIIS-NH2 (C-terminus assumed) [compound 13] | 196 |
| CC[C@H](C)[C@H](NC(=O)[C@H](CC(C)C)NC(=O)[C@H](Cc1c[nH]c2ccccc12)NC(=O)[C@H](CC(=O)O)NC(=O)[C@@H](NC(=O)[C@H](Cc1ccccc1)NC(=O)[C@H](CCC(=O)O)NC(=O)[C@H](CCCCN)NC(=O)[C@H](C)NC(=O)[C@H](C)NC(=O)[C@H](CCCCN)NC(=O)[C@H](CCC(=O)O)NC(=O)[C@H](CC(=O)O)NC(=O)[C@H](CC(C)C)NC(=O)[C@H](CCC(N)=O)NC(=O)[C@H](CCC(N)=O)NC(=O)[C@@H](NC(=O)[C@@H](NC(=O)[C@H](CC(=O)O)NC(=O)[C@H](CO)NC(=O)[C@@H](NC(=O)[C@H](Cc1ccccc1)NC(=O)[C@@H](NC(=O)CNC(=O)[C@H](CCC(=O)O)NC(=O)[C@H](C)NC(=O)[C@@H](N)Cc1c[nH]cn1)[C@@H](C)O)[C@@H](C)O)C(C)C)[C@@H](C)O)[C@@H](C)CC)C(=O)N[C@@H](CC(N)=O)C(=O)NCC(=O)NCC(=O)N1CCC[C@H]1C(=O)N[C@@H](CO)C(=O)N[C@@H](CCCCN)C(=O)N[C@@H](CCC(=O)O)C(=O)N[C@H](C(=O)N[C@H](C(=O)N[C@@H](CO)C(N)=O)[C@@H](C)CC)[C@@H](C)CC [compound 11] | 0.59 |
| YADAPYISDVYSYLQDQVAKKWLKSGQD-NH2 [compound 51] | 971 |
| HAEGTYTNDVTEYLEEKAAKEFIEWLINGGPSKEIIS-NH2 (C-terminus assumed) [compound 21] | 1 |
| HAEGTYTNDVTEYLEEKAAKEFIEWLIN-NH2 (C-terminus assumed) [compound 24] | 0.85 |
| HADGTFTNDMTSYLDAKAARDFVSWLARSDKS-NH2 [compound 52] | 382 |

biological target: T2, GLP-1 receptor (RINm5F cell membranes) (Rattus norvegicus, UniProt P32301); test: GLP-1 receptor binding assay (GLP RBA), [125I]GLP-1 displacement; conditions: [125I]GLP-1 tracer
T2 construct: RINm5F insulinoma cells expressing endogenous GLP-1 receptors; endogenous in cells; host or cells: RINm5F cell membranes
T2 sequence (P32301 22-463): T1 sequence (P32301 22-463)
Procedure: Reaction mixtures are filtered through glass filter pads presoaked with 0.3% PEI solution and rinsed with ice-cold phosphate buffered saline. Bound counts are determined using a scintillation counter. Binding affinities are calculated using GraphPad Prism software (GraphPad Software, Inc., San Diego, Calif.).

| IC50 [nM] | Molecule |
| --- | --- |
| 0.11 | HGEGTYTNDVTEYLEEKAAKEFIEWLIKGKPKKIRYS-NH2 (C-terminus assumed) [compound 26] |
| 22 | HAEGTYTNDVTEYLEEKAAKEFIEWLIPKKIRYS-NH2 (C-terminus assumed) [compound 32] |
| 0.36 | HAEGTYTNDVTEYLEEKAAKEFIEWLIKGPKKIRYS-NH2 (C-terminus assumed) [compound 36] |
| 19 | HAEGTYTNDVTEYLEEKAAKFIEWLIKGKPKKIRYS-NH2 (C-terminus assumed) [compound 31] |

Further lines, the molecule ahead of its results:

| Molecule | IC50 [nM] |
| --- | --- |
| HAEGTFTSDVTQQLDEKAAKEFIDALINGGPSKEIIS-NH2 (C-terminus assumed) [compound 13] | 74 |
| HAEGTYTNDVTEYLEEKAAKEFIEWLIGKPKKIRYS-NH2 (C-terminus assumed) [compound 35] | 0.28 |
